Test system: PCA (Passive Cutaneous Anaphylaxis) reaction
Assay: TEST I: Inhibitory effect on PCA (Passive Cutaneous Anaphylaxis) reaction (64 fold diluted antiserum)
Format: in vivo, male SD (Sprague-Dawley) strain rats
Conditions: for Inhibitory effect (%), Oral administration (100 mg/kg): 60 minutes before antigen challenge; for Inhibitory effect (%), Intravenous administration (10 mg/kg) / inhibition in vivo at 10 mg/kg: 5 minutes before antigen challenge, intravenous; for inhibition in vivo at 10 mg/kg: Rattus norvegicus, read-out: Inhibitory effect (%), Intravenous administration (10 mg/kg)
Description: A solution of egg albumin (2 mg) in B. pertussis-diphtheria-tetanus mixed vaccine (1 ml) was mixed with Freund incomplete adjuvant (1 ml) to give an emulsion. The emulsion was given subcutaneously in a single dose of 1 ml divided equally (0.25 ml) to the four foot pads of male SD (Sprague-Dawley) strain rats aged 8 weeks, each weighing about 300 g.
10 days after the immunization, blood samples were collected from femoral artery of the rats and allowed to stand under ice-cooling for 5 hours. The separated supernatant was centrifuged at 4° C. (10,000 r.p.m.×1 hour). The antisera thus obtained were stored at -80° C. prior to use.
Male SD-strain rats aged 8 weeks, weighing 290 to 330 g, were used for PCA reaction with the homologus reaginic antiserum as prepared above. Each 0.1 ml of 64 fold diluted antiserum were injected intradermally at separate sites on the back of rats clipped free of hair, and 48 hours later, 1 ml of aqueous solution containing each 5 mg of the egg albumin and Evans blue was injected intravenously to evoke PCA reaction. Test compound was given to the animals orally 60 minutes or intravenously 5 minutes before the challenge with antigen. Control group received vehicle. Each dose group consisted of 5 animals. One hour after the challenge with antigen, the animals were sacrificed and then skinned. Dye spots caused with antiserum were investigated for their size on the reversed side of the skin, respectively. The results were expressed by percent inhibition values calculated from averaged values of the longest and shortest diameters for each spot in comparison with those in control group.

Question: “diethyl [(6-amino-4-quinazolinylamino)methylene]propanedioate [Example 15]” was tested. Which “Inhibitory effect (%), Oral administration (100 mg/kg)” value (“Inhibitory effect (%) … (100 mg/kg)” below) did it give?
Answer: Its value is 58.1%.

Question: How did the “Inhibitory effect (%), Intravenous administration (10 mg/kg)” value (“Inhibitory effect (%) … (10 mg/kg)” for short) turn out when “Diethyl [(6-acetamido-4-quinazolinylamino)methylene]propanedioate [Test compound No. 13]” was run?
Answer: The value was 100%.

Question: For “dimethyl [[6-cyclohexanecarboxamido-4-quinazolinylamino]methylene]propanedioate [Example 44]”, which “Inhibitory effect (%) … (10 mg/kg)” value is on record?
Answer: Its value is 0%.

Question: What about the “Inhibitory effect (%) … (100 mg/kg)” value of the same compound?
Answer: Its value is 49.1%.

Question: Which “Inhibitory effect (%) … (10 mg/kg)” value does the source give for “ethyl 4-oxo-10-(3-cyclopentylpropionamido)-4H-pyrimido[1,2-C]quinazoline-3-carboxylate [Example 56]” here?
Answer: Its value is 100%.

Question: What about the “Inhibitory effect (%) … (100 mg/kg)” value of the same compound?
Answer: The value was 24.2%.

Question: For “4-oxo-10-(2-ethylbutyramido)-4H-pyrimido[1,2-C]quinazoline-3-carboxylic acid [Test compound No. 64]”, which “Inhibitory effect (%) … (10 mg/kg)” value is on record?
Answer: The value was 39.8%.

Question: Which inhibition in vivo at 10 mg/kg does the source give for `CCOC(=O)C(=CNc1ncnc2ccc(NC(C)=O)cc12)C(=O)OCC` [compound 13] here?
Answer: The inhibition in vivo at 10 mg/kg was 100%.

Question: How did the “Inhibitory effect (%) … (10 mg/kg)” value turn out when “methyl 4-oxo-10-cyclohexanecarboxamido-4H-pyrimido[1,2-C]quinazoline-3-carboxylate [Example 48]” was run?
Answer: The value was 100%.

Question: And the “Inhibitory effect (%) … (100 mg/kg)” value?
Answer: The value was 57.5%.

Question: How did the “Inhibitory effect (%) … (100 mg/kg)” value turn out when `CCOC(=O)C(=CNc1ncnc2ccc(NC(=O)CC)cc12)C(=O)OCC` [compound 14] was run?
Answer: The value was 77.4%.

Question: `CCOC(=O)c1cnc2c3cc(N4CCN(C)CC4)ccc3ncn2c1=O` [compound 34] was tested. Which inhibition in vivo at 10 mg/kg did it give?
Answer: Its inhibition in vivo at 10 mg/kg is 100%.

Question: “ethyl 4-oxo-10-(3,3-dimethylbutyramido)-4H-pyrimido[1,2-c]quinazoline-3-carboxylate [Test compound No. 61]” was tested. Which “Inhibitory effect (%) … (100 mg/kg)” value did it give?
Answer: The value was 74.2%.

Question: `CCOC(=O)C(=CNc1ncnc2ccc(C)cc12)C(=O)OCC` [compound 2] was tested. Which inhibition in vivo at 10 mg/kg did it give?
Answer: The inhibition in vivo at 10 mg/kg was 100%.

Question: How did the inhibition in vivo at 10 mg/kg turn out when `CCOC(=O)C(=O)Nc1ccc2ncnc(NC=C(C(=O)OCC)C(=O)OCC)c2c1` [compound 17] was run?
Answer: The inhibition in vivo at 10 mg/kg was 100%.

Question: Which “Inhibitory effect (%) … (10 mg/kg)” value does the source give for “methyl 4-oxo-10-(3,3-dimethylbutyramido)-4H-pyrimido[1,2-c]quinazoline-3-carboxylate [Example 38]” here?
Answer: The value was 100%.

Question: `CCOC(=O)C(=CNc1ncnc2ccccc12)C(=O)OCC` [Test compound No. 1, diethyl[(4-quinazolinylamino)methylene]propanedioate] was tested. Which inhibition in vivo at 10 mg/kg did it give?
Answer: Its inhibition in vivo at 10 mg/kg is 100%.

Question: For “methyl 4-oxo-10-pivalamido-4H-pyrimido[1,2-c]quinazoline-3-carboxylate [Test compound No. 59]”, which “Inhibitory effect (%) … (100 mg/kg)” value is on record?
Answer: Its value is 72.7%.

Question: How did the “Inhibitory effect (%) … (10 mg/kg)” value turn out when “tetraethyl 2,2-[2,4-quinazolinediylbis(iminomethylidyne)]bispropanedioate [Example 8]” was run?
Answer: The value was 52.7%.

Question: Which inhibition in vivo at 10 mg/kg does the source give for `CCOC(=O)C(=CNc1ncnc2ccc(CC)cc12)C(=O)OCC` [Test compound No. 3, diethyl [(6-ethyl-4-quinazolinylamino)methylene]propanedioate] here?
Answer: Its inhibition in vivo at 10 mg/kg is 100%.

Question: With “ethyl 4-oxo-10-(2-ethylbutyramido)-4H-pyrimido[1,2-C]quinazoline-3-carboxylate [Example 55]” as the compound, how does the “Inhibitory effect (%) … (10 mg/kg)” value read?
Answer: The value was 91.0%.

Question: `CCOC(=O)C(=CNc1ncnc2ccc(NC(=O)C(C)C)cc12)C(=O)OCC` [Example 16, diethyl [(6-isobutyramido-4-quinazolinylamino)methylene]propanedioate] was tested. Which inhibition in vivo at 10 mg/kg did it give?
Answer: Its inhibition in vivo at 10 mg/kg is 100%.

Question: And the “Inhibitory effect (%) … (100 mg/kg)” value?
Answer: The value was 51.6%.

Question: “diethyl [{6-methanesulfonamido-4-quinazolinylamino}methylene]propanedioate [Example 31]” was tested. Which “Inhibitory effect (%) … (10 mg/kg)” value did it give?
Answer: The value was 64.9%.

Question: With “methyl 4-oxo-10-(2-methylpropionamido)-4H-pyrimido[1,2-C]quinazoline-3-carboxylate [Example 47]” as the compound, how does the “Inhibitory effect (%) … (10 mg/kg)” value read?
Answer: Its value is 100%.

Question: How did the “Inhibitory effect (%) … (10 mg/kg)” value turn out when “4H-pyrimido[1,2-c]quinazoline-4-one [Example 26]” was run?
Answer: The value was 100%.

Question: How did the “Inhibitory effect (%) … (10 mg/kg)” value turn out when “4-oxo-4H-pyrimido[1,2-c]quinazoline-3-carboxylic acid [Example 27]” was run?
Answer: The value was 100%.

Question: Which “Inhibitory effect (%) … (10 mg/kg)” value does the source give for “dimethyl [{6-pivalamido-4-quinazolinylamino}methylene]propanedioate [Example 30]” here?
Answer: The value was 100%.

Question: With `CCOC(=O)C(=CNc1nc(=O)n(C)c2ccccc12)C(=O)OCC` [compound 22] as the compound, how does the inhibition in vivo at 10 mg/kg read?
Answer: Its inhibition in vivo at 10 mg/kg is 100%.

Question: `CCCc1ccc2ncnc(NC=C(C(=O)OCC)C(=O)OCC)c2c1` [compound 4] was tested. Which inhibition in vivo at 10 mg/kg did it give?
Answer: Its inhibition in vivo at 10 mg/kg is 85.9%.

Question: How did the inhibition in vivo at 10 mg/kg turn out when `CCOC(=O)c1cnc2c3ccccc3ncn2c1=O` [compound 23] was run?
Answer: The inhibition in vivo at 10 mg/kg was 100%.

Question: How did the “Inhibitory effect (%) … (10 mg/kg)” value turn out when “diethyl [{6-(3,3-dimethylbutyramido)-4-quinazolinylamino}methylene]propanedioate [Example 29]” was run?
Answer: The value was 100%.

Question: Which “Inhibitory effect (%) … (10 mg/kg)” value does the source give for “diethyl [(6-nitro-4-quinazolinylamino)methylene]propanedioate [Test compound No. 8]” here?
Answer: Its value is 24.4%.

Question: “diethyl [[6-(2-ethylbutyramido)-4-quinazolinylamino]methylene]propanedioate [Example 54]” was tested. Which “Inhibitory effect (%) … (10 mg/kg)” value did it give?
Answer: Its value is 48.4%.

Question: With “diethyl 4,9-dioxo-4H,9H-pyrimido[1,2-c]pyrimido[1,2-a]quinazoline-3,8-dicarboxylate [Example 25]” as the compound, how does the “Inhibitory effect (%) … (10 mg/kg)” value read?
Answer: The value was 100%.

Question: For “ethyl 4-oxo-4H-pyrimido[1,2-c]quinazoline-3-carboxylate [Test compound No. 23]”, which “Inhibitory effect (%) … (10 mg/kg)” value is on record?
Answer: Its value is 75.4%.

Question: Which results are given for “dimethyl [[6-(2,3-dimethylpentanamido)-4-quinazolinylamino]methylene]propanedioate [Example 57]”?
Answer: Inhibitory effect (%), Intravenous administration (10 mg/kg): 100%; Inhibitory effect (%), Oral administration (100 mg/kg): 100%

Question: With “4-oxo-10-(3-cyclopentylpropionamido)-4H-pyrimido[1,2-C]quinazoline-3-carboxylic acid [Example 53]” as the compound, how does the “Inhibitory effect (%) … (10 mg/kg)” value read?
Answer: Its value is 85.0%.

Question: How did the “Inhibitory effect (%) … (10 mg/kg)” value turn out when “4-oxo-10-cyclohexanecarboxamido-4H-pyrimido[1,2-C]quinazoline-3-carboxylicacid [Example 52]” was run?
Answer: The value was 100%.

Question: `CCOC(=O)C(=CNc1ncnc2ccc(N(C)C)cc12)C(=O)OCC` [compound 11] was tested. Which inhibition in vivo at 10 mg/kg did it give?
Answer: The inhibition in vivo at 10 mg/kg was 100%.

Question: How did the inhibition in vivo at 10 mg/kg turn out when `CCOC(=O)C(=CNc1ncnc2ccc(N3CCN(C)CC3)cc12)C(=O)OCC` [compound 12] was run?
Answer: Its inhibition in vivo at 10 mg/kg is 51.2%.

Question: For “4-oxo-10-pivalamido-4H-pyrimido[1,2-c]quinazoline-3-carboxyic acid [Test compound No. 60]”, which “Inhibitory effect (%) … (100 mg/kg)” value is on record?
Answer: The value was 75.8%.

Question: Which “Inhibitory effect (%) … (10 mg/kg)” value does the source give for “4-oxo-10-(2-methylpropionamido)-4H-pyrimido[1,2-C]quinazoline-3-carboxylicacid [Test compound No. 63]” here?
Answer: Its value is 100%.

Question: For `CCOC(=O)C(=CNc1nc(OC)nc2ccccc12)C(=O)OCC` [compound 20], which inhibition in vivo at 10 mg/kg is on record?
Answer: The inhibition in vivo at 10 mg/kg was 37.6%.

Question: Which “Inhibitory effect (%) … (10 mg/kg)” value does the source give for “methyl 4-oxo-10-(2-ethylbutyramido)-4H-pyrimido[1,2-C]quinazoline-3-carboxylate [Example 46]” here?
Answer: The value was 76.3%.

Reference: patent US4429126A, “Sodium salt of 4-oxo-10-(2,3-dimethylpentanamido)-4H-pyrimido[1,2-c]quinozoline-3-carbo xylic acid” (Fujisawa Pharmaceutical Co., Ltd., priority 1982, dated 1984)
